Data on ten compounds can be found in ChEMBL document CHEMBL5137077, “Peptide-to-Small Molecule: A Pharmacophore-Guided Small Molecule Lead Generation Strategy from High-Affinity Macrocyclic Peptides” (J Med Chem, 2022).

Series [1] addresses Indolethylamine N-methyltransferase (Homo sapiens, UniProt O95050). Description: Inhibition of N-terminal 6His-tagged full length human recombinant INMT (1 to 263 residues) expressed in Escherichia coli BL21 (DE3) cells using S-(5'-Adenosyl)-L-methionine chloride dihydrochloride and 9H-pyrido[3,4-b]indole as substrate incubated for 2.5 hrs by MTase-Glo assay.
The test system of series [2] is HEK293. Description: Cytotoxicity against HEK293 cells assessed as reduction in ATP incubated for 10 mins by CellTiter-Glo luminescence assay. The class given is toxicity, cell-based. The following applies: human, hek293, 10 min. A general note: Cellular ATP, detected with luciferase, serves as a proxy for viable cell number.
For series [3], the target named is T1, Nicotinamide N-methyltransferase (Homo sapiens, UniProt P40261).
T1 sequence (P40261 whole entry): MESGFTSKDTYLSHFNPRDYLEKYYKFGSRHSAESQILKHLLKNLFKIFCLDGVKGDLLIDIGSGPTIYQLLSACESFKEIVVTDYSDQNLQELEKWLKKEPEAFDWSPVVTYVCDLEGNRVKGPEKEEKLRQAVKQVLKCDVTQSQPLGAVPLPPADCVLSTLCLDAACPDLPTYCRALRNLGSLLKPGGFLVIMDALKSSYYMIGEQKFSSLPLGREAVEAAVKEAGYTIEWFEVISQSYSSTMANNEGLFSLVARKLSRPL
The experiment in a line: Inhibition of N-terminal 6His-tagged full length human recombinant NNMT (1 to 264 residues) expressed in Escherichia coli BL21 (DE3) cells using S-adenosyl-L-methionine and NAM as substrate incubated for 2 hrs by RapidFire Mass Spectrometry.

Series [4] addresses T1, Nicotinamide N-methyltransferase. Description: Inhibition of N-terminal 6His-tagged full length human recombinant NNMT (1 to 264 residues) expressed in Escherichia coli BL21 (DE3) cells using S-adenosyl-L-methionine and NAM as substrate incubated for 22 to 24 hrs by RapidFire Mass Spectrometry.
The target is the same in series [5]. The experiment in a line: Inhibition of NNMT in HEK293 cells measured after 20 to 24 hrs by RapidFire Mass Spectrometry. In kind it is cell-based.

Each structure is given as a SMILES string. Positions of bridges follow the written chain, without caps; N, C: chain ends. Non-standard residues stand in square brackets, D forms with d. Residues, ends and D or L forms follow the SMILES beside them. Phe(4-CONH2) = NC(=O)c1ccc(C[C@H](N)C(=O)O)cc1; NHexGly = CCCCCCNCC(=O)O; Sar = CNCC(=O)O

Indolethylamine N-methyltransferase, sequence (O95050 whole entry, the tested form may be a part): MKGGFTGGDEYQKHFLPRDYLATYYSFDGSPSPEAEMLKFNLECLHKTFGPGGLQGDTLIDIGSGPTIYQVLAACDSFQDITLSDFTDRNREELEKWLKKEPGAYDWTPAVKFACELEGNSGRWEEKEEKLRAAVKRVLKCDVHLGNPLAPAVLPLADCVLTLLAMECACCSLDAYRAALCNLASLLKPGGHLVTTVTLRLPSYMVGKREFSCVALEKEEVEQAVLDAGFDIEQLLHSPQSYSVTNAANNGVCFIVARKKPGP

As a reminder, the IC50 is the concentration that inhibits the measured activity by half. As for `Cc1ccc2c(c1)cc([C@H]1C[C@H](n3ccnc3CN)CN1C(=O)c1cnc3[nH]ccc3c1)n2Cc1ccc(Cl)cc1`, the IC50 in series [1] was over 100 µM.

Consider `NCc1nccn1[C@H]1C[C@H](c2nc3ccccc3n2Cc2ccccc2)N(C(=O)c2cnc3[nH]ccc3c2)C1`, for which the IC50 in series [1] was over 100 µM.

Turning to `Cc1ccc2c(c1)cc([C@H]1C[C@H](n3nc(C)cc3CN)CN1C(=O)c1cnc3[nH]c(C)cc3c1)n2Cc1ccc(Cl)cc1`, the half-maximal inhibitory concentration (IC50) in series [1] was over 100 µM. For the same compound, the CC20 in series [2] was over 10 µM.

`CCCCCCN(CC(=O)N[C@@H](Cc1c[nH]c2ccccc12)C(N)=O)C(=O)CNC(=O)[C@H](CCCNC(=N)N)NC(C)=O` (Ac-RG[NHexGly]W-NH2): the IC50 in series [3] was over 30 µM.

Consider `CCCCCCN1CC(=O)N[C@@H](Cc2c[nH]c3ccccc23)C(=O)N2CCC[C@H]2C(=O)N[C@H](C(N)=O)CSCC(=O)N[C@@H](Cc2ccccc2)C(=O)N[C@@H](Cc2ccc(C(N)=O)cc2)C(=O)N[C@@H](C)C(=O)NCC1=O` ({CH2CO}-F[Phe(4-CONH2)]AG[NHexGly]WPC-NH2; thioether N-8), for which, in series [4], the 50% inhibitory concentration (IC50) was over 100 µM.

Take `C[C@@H]1NC(=O)CNC(=O)[C@H](CCCNC(=N)N)NC(=O)[C@H](Cc2ccc(C(N)=O)cc2)NC(=O)[C@H](Cc2ccccc2)NC(=O)CSC[C@@H](C(N)=O)NC(=O)[C@@H]2CCCN2C(=O)[C@H](Cc2c[nH]c3ccccc23)NC1=O` ({CH2CO}-F[Phe(4-CONH2)]RGAWPC-NH2; thioether N-8): the 50% inhibitory concentration (IC50) in series [4] is over 100 µM.

Regarding `CCCCCCN1CC(=O)N[C@@H](C)C(=O)N2CCC[C@H]2C(=O)N[C@H](C(N)=O)CSCC(=O)N[C@@H](Cc2ccccc2)C(=O)N[C@@H](Cc2ccc(C(N)=O)cc2)C(=O)N[C@@H](CCCNC(=N)N)C(=O)NCC1=O` ({CH2CO}-F[Phe(4-CONH2)]RG[NHexGly]APC-NH2; thioether N-8), in series [4], the IC50 was over 100 µM.

Turning to `CCCCCCN1CC(=O)N[C@@H](Cc2c[nH]c3ccccc23)C(=O)N2CCC[C@H]2C(=O)N[C@H](C(=O)NCC(N)=O)CSCC(=O)N[C@@H](Cc2ccccc2)C(=O)N[C@@H](Cc2ccc(C(N)=O)cc2)C(=O)N[C@@H](CCCNC(=N)N)C(=O)NCC1=O` ({CH2CO}-F[Phe(4-CONH2)]RG[NHexGly]WPCG-NH2; thioether N-8), the 50% inhibitory concentration (IC50) in series [1] is over 100 µM.

As to `CN1CC(=O)N[C@@H](Cc2c[nH]c3ccccc23)C(=O)N2CCC[C@H]2C(=O)N[C@H](C(N)=O)CSCC(=O)N[C@@H](Cc2ccccc2)C(=O)N[C@@H](Cc2ccc(C(N)=O)cc2)C(=O)N[C@@H](CCCNC(=N)N)C(=O)NCC1=O` ({CH2CO}-F[Phe(4-CONH2)]RG[Sar]WPC-NH2; thioether N-8), in series [4], the concentration for half-maximal inhibition (IC50) is over 30 µM.

As for `Nc1ncnc2c1ncn2[C@@H]1O[C@H](C[C@@H](N)CC[C@H](N)C(=O)O)[C@@H](O)[C@H]1O` [SINEFUNGIN], the IC50 is 4 µM in series [1], over 100 µM in series [5] and 5.2 µM in series [3].
